Experiment [1] deals with recombinant human activated BRAF (V599E) kinase (Homo sapiens (Human), UniProt P15056, V600E). The experiment is described as follows: biochemical.
The target in experiment [2] is activated MAP kinase 2/ERK2 (Homo sapiens (Human), UniProt P28482). The experiment is described as follows: biochemical.
The test system of experiment [3] is phospho-ERK1/2 in A375 cells. The experiment in a line: cells. The conditions noted are these: Homo sapiens, A-375, 3 h, read-out: A375 ICW IC50.
Method: Human melanoma A375 cells were seeded at 50,000 cells per well in 100 μl growth medium in Costar 96 well black clear bottom plates and placed at 37° C./5% CO2 over night. Test compounds were diluted in DMSO to generate a concentration curve. A 5 mM stock was used for the highest concentration at 500 times; to yield a final concentration of 10 μM with 3-fold dilutions down to 0.0001 μM. 1 μl of diluted compound was added to 500 μl cell culture media and mixed well. Media was removed from cells and 200 μl of media containing compound was added. Cells were treated for 3 hrs with compound at 37° C., 5% CO2.
After the compound incubation, cells were washed once with PBS (Mg^++,Ca^++) and fixed in 4% paraformaldehyde/PBS for 1 hr at room temperature. Following fixation, cells were washed three times with PBS/0.1% TritonX-100(PBST), and then blocked with 5% skimmed milk/PBST, for 1-2 hr. 50 μL per well primary antibody was added (rabbit-anti-phospho-ERK1/2) at 1:500 in 5% skimmed milk/PBST and incubated overnight at 4° C. Cells were washed four times with 100 μl DELFIA wash buffer and 50 μL per well secondary antibody was added (DELFIA-EU-N1-labeled anti-rabbit antibody) at 1:3000 in DELFIA assay buffer and incubated for 2 hr at room temperature in the dark (covered). Cells were washed 4× with 100 μl DELFIA wash buffer. 50 μL per well Wallac-DELFIA enhancement solution was added. […]
For a further experiment, the system named is A375 cells. The experiment in a line: cells. The conditions noted are these: Homo sapiens, A-375, 72 h, read-out: A375 XTT IC50 uM.

Chain of recombinant human activated BRAF (V599E) kinase (P15056 417-766 V600E limits assumed): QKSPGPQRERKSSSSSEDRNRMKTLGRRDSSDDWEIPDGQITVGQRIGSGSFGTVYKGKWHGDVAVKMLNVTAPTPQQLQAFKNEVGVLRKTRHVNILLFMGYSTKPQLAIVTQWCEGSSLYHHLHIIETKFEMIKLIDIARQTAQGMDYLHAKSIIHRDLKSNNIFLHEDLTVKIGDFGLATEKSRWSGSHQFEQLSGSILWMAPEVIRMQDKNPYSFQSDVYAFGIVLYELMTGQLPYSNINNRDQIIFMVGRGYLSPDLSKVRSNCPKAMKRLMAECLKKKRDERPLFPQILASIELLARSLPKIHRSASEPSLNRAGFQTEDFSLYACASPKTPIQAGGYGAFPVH
Chain of activated MAP kinase 2/ERK2 (P28482 whole entry, looked up): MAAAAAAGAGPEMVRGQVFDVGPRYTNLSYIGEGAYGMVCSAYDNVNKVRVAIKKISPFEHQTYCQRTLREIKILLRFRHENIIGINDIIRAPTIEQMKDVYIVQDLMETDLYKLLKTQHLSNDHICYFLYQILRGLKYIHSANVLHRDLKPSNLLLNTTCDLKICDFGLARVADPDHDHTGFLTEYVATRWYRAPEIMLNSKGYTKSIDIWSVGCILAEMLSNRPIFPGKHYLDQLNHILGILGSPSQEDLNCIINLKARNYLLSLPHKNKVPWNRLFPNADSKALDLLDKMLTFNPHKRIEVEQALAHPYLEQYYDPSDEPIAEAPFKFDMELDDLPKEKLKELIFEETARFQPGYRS

With `Cc1nc2cnc3cc(F)c(-c4ccc(Oc5ncccn5)cc4Cl)cc3c2n1[C@H]1CCN(C(=O)CO)C[C@@H]1F` [Example 1A, 1-((3S,4S)-4-(8-(2-chloro-4-(pyrimidin-2-yloxy)phenyl)-7-fluoro-2-methyl-1H-imidazo[4,5-c]quinolin-1-yl)-3-fluoropiperidin-1-yl)-2-hydroxyethanone], the values for the inhibition at 10 µM in experiment [1] and in experiment [2] were 0% and 55%, respectively. Also, the IC50 was found to be 3.9 nM in experiment [3] and 0.003 µM with A375 cells.

These data come from patent US10011599B2 (priority 2013, dated 2018).
